Data published in patent US8742110B2, “Spiroxazolidinone compounds” (Merck Sharp & Dohme Corp., priority 2010, dated 2014).
Counter-ions that a name gives are not always drawn.

Target: SSTR5 (Homo sapiens (Human), UniProt P35346)
Assay: SSTR5 binding assay
Conditions: CHO-K1 membranes expressing cloned human SSTR5
How it was run: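 Competition binding on membranes from CHO-K1 cells stably expressing cloned human receptor, using radiolabeled somatostatin in 50 mM Tris-HCl pH 7.8 with EGTA, MgCl2 and protease inhibitors. Unlabeled compounds tested from 0.01 nM to 10,000 nM.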

Chain of SSTR5 (P35346 whole entry): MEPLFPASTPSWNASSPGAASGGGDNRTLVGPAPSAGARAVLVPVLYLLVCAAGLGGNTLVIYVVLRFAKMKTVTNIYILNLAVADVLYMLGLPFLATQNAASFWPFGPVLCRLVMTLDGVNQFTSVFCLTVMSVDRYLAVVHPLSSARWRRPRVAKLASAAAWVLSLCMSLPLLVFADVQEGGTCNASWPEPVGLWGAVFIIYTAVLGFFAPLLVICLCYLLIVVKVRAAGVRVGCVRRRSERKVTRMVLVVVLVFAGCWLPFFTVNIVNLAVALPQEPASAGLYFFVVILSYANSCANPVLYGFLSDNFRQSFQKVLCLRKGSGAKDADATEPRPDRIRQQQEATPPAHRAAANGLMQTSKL

SMILES | IC50 | IC50 (TFA salt)
CC(C)(C)n1cc(CN2CC3(C2)CN(c2ccc(C(=O)O)cc2)C(=O)O3)c(-c2ccc(F)c(F)c2F)n1 [Example 2-9, 4-(2-{[1-tert-Butyl-3-(2,3,4-trifluorophenyl)-1H-pyrazol-4-yl]methyl}-6-oxo-5-oxa-2,7-diazaspiro[3.4]oct-7-yl)benzoic acid, TFA salt] | 14.9 nM | –
CCOc1cc(CN2CCC3(CC2)CN(c2ccc(C(=O)O)cc2C)C(=O)O3)c(-c2ccc(F)c(F)c2F)cc1C [Example 4-8, 4-{8-[(4-Ethoxy-2′,3′,4′-trifluoro-5-methylbiphenyl-2-yl)methyl]-2-oxo-1-oxa-3,8-diazaspiro[4.5]dec-3-yl}-3-methylbenzoic acid, TFA salt] | 0.474 nM | –
CCOc1cc(CN2CCC3(CC2)CN(c2cncc(C(=O)O)c2)C(=O)O3)cc(OCC)c1-c1ccc(F)cc1 [Example 3-5, 5-{8-[(2,6-Diethoxy-4′-fluorobiphenyl-4-yl)methyl]-2-oxo-1-oxa-3,8-diazaspiro[4.5]dec-3-yl}pyridine-3-carboxylic acid, TFA salt] | 2.12 nM | –
COc1ccccc1-c1nn(C(C)(C)C)cc1CN1CCC2(CC1)CN(c1ccc(C(=O)O)cc1)C(=O)O2 [Example 1-14, 4-(8-{[1-tert-butyl-3-(2-Methoxyphenyl)-1H-pyrazol-4-yl]methyl}-2-oxo-1-oxa-3,8-diazaspiro[4.5]dec-3-yl)benzoic acid, TFA salt] | – | 4.7 nM
CCOc1cc(CN2CCC3(CC2)CN(c2ccc(C(=O)O)cc2)C(=O)O3)cc2cnc(C(F)(F)F)cc12 [Example 5-8, 4-(8-{[5-Ethoxy-3-(trifluoromethyl)isoquinolin-7-yl]methyl}-2-oxo-1-oxa-3,8-diazaspiro[4.5]dec-3-yl)benzoic acid, TFA salt] | 0.424 nM | –
O=C(O)c1ccc(N2CC3(CCN(Cc4cn(-c5ccccc5)nc4-c4ccc(OC(F)(F)F)cc4)CC3)OC2=O)cc1 [Example 1-27, 4-[2-Oxo-8-({1-phenyl-3-[4-(trifluoromethoxy)phenyl]-1H-pyrazol-4-yl}methyl)-1-oxa-3,8-diazaspiro[4.5]dec-3-yl]benzoic acid, TFA salt] | 12.9 nM | –
CCOc1cc(CN2CCC3(CC2)CN(c2ccc(C(=O)O)cc2)C(=O)O3)c(-c2ccc(F)c(F)c2F)cc1C [Example 4-7, 4-{8-[(4-Ethoxy-2′,3′,4′-trifluoro-5-methylbiphenyl-2-yl)methyl]-2-oxo-1-oxa-3,8-diazaspiro[4.5]dec-3-yl}benzoic acid, TFA salt] | 0.409 nM | –
COc1ccc(-c2nn(C(C)(C)C)cc2CN2CCC3(CC2)CN(c2ccc(C(=O)O)cc2)C(=O)O3)c(F)c1 [Example 1-32, 4-(8-{[1-tert-Butyl-3-(2-fluoro-4-methoxyphenyl)-1H-pyrazol-4-yl]methyl}-2-oxo-1-oxa-3,8-diazaspiro[4.5]dec-3-yl)benzoic acid, TFA salt] | 2.05 nM | –
O=C(O)c1ccc(N2CC3(CCN(Cc4cnn(-c5ccccc5)c4-c4cc(F)c(F)cc4F)CC3)OC2=O)cc1 [Example 2-7, 4-(2-Oxo-8-{[1-phenyl-5-(2,4,5-trifluorophenyl)-1H-pyrazol-4-yl]methyl}-1-oxa-3,8-diazaspiro[4.5]dec-3-yl)benzoic acid, TFA salt] | 1.83 nM | –
CCOc1cc(CN2CCC3(C2)CN(c2ccc(C(=O)O)cc2)C(=O)O3)cc(OCC)c1-c1ccc(F)cc1 (centres unmarked) [Example 2-16, 4-{7-[(2,6-Diethoxy-4′-fluorobiphenyl-4-yl)methyl]-2-oxo-1-oxa-3,7-diazaspiro[4.4]non-3-yl}benzoic acid, TFA salt] | 5.63 nM | –
CC(C)Oc1ccc(-c2cc(F)c(F)cc2F)c(CN2CCC3(CC2)CN(c2ccc(C(=O)O)cc2)C(=O)O3)c1 [Example 4-16, 4-(2-Oxo-8-{[2′,4′,5′-trifluoro-4-(propan-2-yloxy)biphenyl-2-yl]methyl}-1-oxa-3,8-diazaspiro[4.5]dec-3-yl)benzoic acid, TFA salt] | 0.272 nM | –
Cc1ccc(-c2cc(C)c(Cl)cc2CN2CCC3(CC2)CN(c2ccc(C(=O)O)cc2)C(=O)O3)cn1 [Example 4-23, 4-{8-[5-Chloro-4-methyl-2-(6-methylpyridin-3-yl)benzyl]-2-oxo-1-oxa-3,8-diazaspiro[4.5]dec-3-yl}benzoic acid, TFA salt] | 2.3 nM | –
CC(C)(C)c1nn(-c2ccc(F)cc2)cc1CN1CCC2(CC1)CN(c1ccc(C(=O)O)cc1)C(=O)O2 [Example 1-35, 4-(8-{[3-tert-Butyl-1-(4-fluorophenyl)-1H-pyrazol-4-yl]methyl}-2-oxo-1-oxa-3,8-diazaspiro[4.5]dec-3-yl)benzoic acid, TFA salt] | 36.2 nM | –
CCOc1ccc(-c2ccc(F)c(F)c2)c(CN2CCC3(CC2)CN(c2ccc(C(=O)O)cc2)C(=O)O3)c1 [Example 4-4, 4-{8-[(4-Ethoxy-3′,4′-difluorobiphenyl-2-yl)methyl]-2-oxo-1-oxa-3,8-diazaspiro[4.5]dec-3-yl}benzoic acid, TFA salt] | 0.502 nM | –
CCOc1cc(CN2CCCC3(CC2)CN(c2ccc(C(=O)O)cc2)C(=O)O3)cc(OCC)c1-c1ccc(F)cc1 (centres unmarked) [Example 2-12, 4-{8-[(2,6-Diethoxy-4′-fluorobiphenyl-4-yl)methyl]-2-oxo-1-oxa-3,8-diazaspiro[4.6]undec-3-yl}benzoic acid, TFA salt] | 4.93 nM | –
O=C(O)c1ccc(N2CC3(CCN(Cc4cn(C5CCCCC5)nc4-c4cccc(C(F)(F)F)c4)CC3)OC2=O)cc1 [Example 1-5, 4-[8-({1-Cyclohexyl-3-[3-(trifluoromethyl)phenyl]-1H-pyrazol-4-yl}methyl)-2-oxo-1-oxa-3,8-diazaspiro[4.5]dec-3-yl]benzoic acid, TFA salt] | 1.53 nM | –
CCCn1nc(CN2CCC3(CC2)CN(c2ccc(C(=O)O)cc2)C(=O)O3)c2ccc(OC)cc21 [Example 6-3, 4-{8-[(6-Methoxy-1-propyl-1H-indazol-3-yl)methyl]-2-oxo-1-oxa-3,8-diazaspiro[4.5]dec-3-yl}benzoic acid, TFA salt] | 156 nM | –
CC(C)(C)n1cc(CN2CCC3(CC2)CN(c2ccc(C(=O)O)cc2)C(=O)O3)c(-c2cc(F)c(Cl)cc2F)n1 [Example 1-31, 4-(8-{[1-tert-Butyl-3-(4-chloro-2,5-difluorophenyl)-1H-pyrazol-4-yl]methyl}-2-oxo-1-oxa-3,8-diazaspiro[4.5]dec-3-yl)benzoic acid, TFA salt] | 2.09 nM | –
CCOc1ccc(-c2ccc(F)c(F)c2F)c(CN2CCC3(CC2)CN(c2ccc(C(=O)O)c(C)c2)C(=O)O3)c1 [Example 4-13, 4-{8-[(4-Ethoxy-2′,3′,4′-trifluorobiphenyl-2-yl)methyl]-2-oxo-1-oxa-3,8-diazaspiro[4.5]dec-3-yl}-2-methylbenzoic acid, TFA salt] | 0.983 nM | –
CCOc1cc(CN2CCC3(CC2)CN(c2ccc(C(C)(C)C(=O)O)cc2)C(=O)O3)cc(OCC)c1-c1ccc(F)cc1 [Example 3-6, 2-(4-{8-[(2,6-Diethoxy-4′-fluorobiphenyl-4-yl)methyl]-2-oxo-1-oxa-3,8-diazaspiro[4.5]dec-3-yl}phenyl)-2-methylpropanoic acid, TFA salt] | 9.47 nM | –
CCOc1cc(CN2CCC3(CC2)CN(c2ccc(C(=O)O)c(C)c2)C(=O)O3)cc(OCC)c1-c1ccc(F)cc1 [Example 3-8, 4-{8-[(2,6-Diethoxy-4′-fluorobiphenyl-4-yl)methyl]-2-oxo-1-oxa-3,8-diazaspiro[4.5]dec-3-yl}-2-methylbenzoic acid, TFA salt] | 1.42 nM | –
O=C(O)c1ccc(N2CC3(CCN(Cc4cnc(-c5ccccc5)nc4-c4ccc(F)cc4)CC3)OC2=O)cc1 [Example 4-15, 4-(8-{[4-(4-Fluorophenyl)-2-phenylpyrimidin-5-yl]methyl}-2-oxo-1-oxa-3,8-diazaspiro[4.5]dec-3-yl)benzoic acid, TFA salt] | 218 nM | –

More lines, now with the values ahead:

IC50 | IC50 (TFA salt) | SMILES
89.9 nM | – | O=C(O)c1ccc(N2CC3(CCN(Cc4nc(-c5ccccc5)oc4-c4cc(F)c(F)cc4F)CC3)OC2=O)cc1 [Example 6-30, 4-(2-Oxo-8-{[2-phenyl-5-(2,4,5-trifluorophenyl)-1,3-oxazol-4-yl]methyl}-1-oxa-3,8-diazaspiro[4.5]dec-3-yl)benzoic acid, TFA salt]
1200 nM | – | O=C(O)c1ccc(N2CC3(CCN(Cc4nc5ccccn5c4-c4cc(F)c(F)cc4F)CC3)OC2=O)cc1 [Example 6-36, 4-(2-Oxo-8-{[3-(2,4,5-trifluorophenyl)imidazo[1,2-a]pyridin-2-yl]methyl}-1-oxa-3,8-diazaspiro[4.5]dec-3-yl)benzoic acid, TFA salt]
69.1 nM | – | O=C(O)c1ccc(N2CC3(CCN(Cc4sc(-c5ccccc5)nc4-c4ccccc4)CC3)OC2=O)cc1 [Example 6-32, 4-{8-[(2,4-Diphenyl-1,3-thiazol-5-yl)methyl]-2-oxo-1-oxa-3,8-diazaspiro[4.5]dec-3-yl}benzoic acid, TFA salt]
0.705 nM | – | COc1ccc(-c2nc(C(C)(C)C)sc2CN2CCC3(CC2)CN(c2ccc(C(=O)O)cc2)C(=O)O3)cc1 [Example 6-29, 4-(8-{[2-tert-Butyl-4-(4-methoxyphenyl)-1,3-thiazol-5-yl]methyl}-2-oxo-1-oxa-3,8-diazaspiro[4.5]dec-3-yl)benzoic acid, TFA salt]
0.342 nM | – | CC(C)n1cc(CN2CCC3(CC2)CN(c2ccc(C(=O)O)cc2)C(=O)O3)c2cc(-c3ccc(F)c(F)c3F)ccc21 [Example 6-24, TFA salt]
410 nM | – | COc1ccc2c(CN3CCC4(CC3)CN(c3ccc(C(=O)O)cc3)C(=O)O4)nn(CC(C)(C)C)c2c1 [Example 6-11, 4-(8-{[1-(2,2-Dimethylpropyl)-6-methoxy-1H-indazol-3-yl]methyl}-2-oxo-1-oxa-3,8-diazaspiro[4.5]dec-3-yl)benzoic acid, TFA salt]
0.26 nM | – | CC(C)n1nc(CN2CCC3(CC2)CN(c2ccc(C(=O)O)cc2)C(=O)O3)c2cc(OCc3ccccc3)ccc21 [Example 6-14, 4-(8-{[5-(Benzyloxy)-1-(propan-2-yl)-1H-indazol-3-yl]methyl}-2-oxo-1-oxa-3,8-diazaspiro[4.5]dec-3-yl)benzoic acid, TFA salt]
